Values joined by “and” are separate entries in the source; they are usually repeats but may differ in a detail not shown here. Equal entries are not always repeated.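 All cell lines were grown in 96-well plates and treated with compound for 48 hours. Abbreviation: GI50, concentration required for 50% inhibition of growth. TGI denotes the concentration required for complete inhibition of growth.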
Key:
Assay in all cases: NCI tumour cell line growth inhibition, 48 h
SNB-78 CNS = system: SNB-78 CNS
DMS 114 small cell lung = system: DMS 114 small cell lung
DMS 273 small cell lung = system: DMS 273 small cell lung
DLD-1 colon = system: DLD-1 colon
LXFL 529 NSCLC = system: LXFL 529 NSCLC
RXF-631 renal = system: RXF-631 renal
HS 578T breast = system: HS 578T breast
SN12K1 renal = system: SN12K1 renal
MDA-N = system: MDA-N
P388/ADR leukemia = system: P388/ADR leukemia
P388 leukemia = system: P388 leukemia
BT-549 breast = system: BT-549 breast

| Compound | TGI (SNB-78 CNS) | TGI (DMS 114 small cell lung) | TGI (DMS 273 small cell lung) | TGI (DLD-1 colon) | GI50 (SNB-78 CNS) | GI50 (DMS 114 small cell lung) | GI50 (DMS 273 small cell lung) | GI50 (DLD-1 colon) | GI50 (LXFL 529 NSCLC) [µM] | TGI (LXFL 529 NSCLC) [µM] | TGI (RXF-631 renal) [µM] | TGI (HS 578T breast) [µM] | TGI (SN12K1 renal) [µM] | TGI (MDA-N) [µM] | TGI (P388/ADR leukemia) [µM] | TGI (P388 leukemia) [µM] | TGI (BT-549 breast) [µM] |
| --- | --- | --- | --- | --- | --- | --- | --- | --- | --- | --- | --- | --- | --- | --- | --- | --- | --- |
| C/C(=C\CC[C@]1(C)OC(C)(C)OC1CC/C(C)=C/CO[Si](c1ccccc1)(c1ccccc1)C(C)(C)C)CC/C=C/CO[Si](C)(C)C(C)(C)C (stereo not given in full) | > 100 µM | > 100 µM | > 100 µM | > 100 µM |  |  |  |  |  |  |  |  |  |  |  |  |  |
| C[CH2][Sn]([Cl])([Cl])[CH2]C | 46.4 µM | 31.4 µM | > 100 µM | > 100 µM | 20.3 µM | 16.2 µM | > 91.2 µM | 36 µM | 12.5 | 25.2 |  |  |  |  |  |  |  |
| COc1ccc2c(c1)CC1c3c(cc4c(c3-2)OCO4)CCN1C (stereo not given) | > 100 µM | 68.8 µM | > 100 µM | > 100 µM |  |  |  |  |  | > 100 | 73.6 |  |  |  |  |  |  |
| C=CCCCCCC(O)C(O)C/C=C\C/C=C\CC (stereo not given) | > 18.8 µM | > 18.8 µM | > 18.8 µM | > 18.8 µM |  |  |  |  |  | > 18.8 |  |  |  |  |  |  |  |
| C=C(C)[C@H](O)C(O)CC(C)[C@@H]1CCC23CC12CCC1[C@@]2(C)CCC(OC(C)=O)C(C)(C)C2CC(OC2OC(COC(C)=O)C(O)C(O)C2O)[C@]13C (stereo not given in full) | 14.2 µM | 10.7 µM | 11.4 µM | 11.2 µM |  |  |  |  |  | 10.9 | 12 |  |  |  |  |  |  |
| CC12CC3CC(C1)CC(N=[N+]=[N-])(C3)C2 | > 100 µM | > 100 µM | > 100 µM | > 100 µM |  |  |  |  |  | > 100 | > 100 |  |  |  |  |  |  |
| N#CC(C#N)=C1SCC(=O)CS1 | > 100 µM | > 100 µM | > 100 µM | > 100 µM |  |  |  |  |  | > 100 | > 100 |  |  |  |  |  |  |
| CCOC(=O)NC(=O)c1cn(CCN2CCN(C(=O)NCCCCCCNC(=O)N3CCN(CCn4cc(C(=O)NC(=O)OCC)c(=O)n(CCN(CC)CC)c4=O)CC3)CC2)c(=O)n(CCC(CC)CC)c1=O | > 100 µM | > 100 µM | > 100 µM | > 100 µM |  |  |  |  |  | > 100 |  |  |  |  |  |  |  |
| N#CN1CCC=C(c2cc3ccccc3[nH]2)C1 |  |  | > 448 µM | > 448 µM |  |  |  |  |  | > 448 | > 448 |  |  |  |  |  |  |
| COc1cc([C@@H]2OC(=O)C3C2C(=O)O[C@H]3c2cc(OC)c(OC)c(OC)c2)cc(OC)c1OC (stereo not given in full) | > 100 µM | > 100 µM | > 100 µM |  |  |  |  |  |  |  | > 100 |  |  |  |  |  |  |
| Clc1ccc(SCCCCCCCCCCSc2ccc(Cl)cc2)cc1 | > 100 µM | > 100 µM | > 100 µM | > 100 µM |  |  |  |  |  | > 100 |  |  |  |  |  |  |  |
| CNc1nc(N(C)C)nc(N(C)C)n1 | > 100 µM and 5300 µM | > 100 µM and 5500 µM | > 100 µM and 2740 µM | > 100 µM and 4160 µM | > 100 µM and 1780 µM | > 100 µM and 527 µM | > 100 µM and 1230 µM | > 100 µM and 822 µM |  | > 100 |  | 4450 | 2620 | 2850 | 1800 | 1530 | 3620 |
| C[CH2][Sn]([CH2]C)([O]C(=O)c1cccc(F)c1)[O][Sn]([CH2]C)([CH2]C)[O]C(=O)c1cccc(F)c1 | 35.1 µM | 27.3 µM | > 100 µM | 26.1 µM | 16.3 µM | 14 µM | 32 µM | 12.5 µM | 10.4 | 22.4 |  |  |  |  |  |  |  |
| COc1cc(C(=O)CC2(O)C(=O)Nc3c(Cl)cc(Cl)cc32)ccc1O (stereo not given) | > 100 µM | > 100 µM | > 100 µM | > 100 µM |  |  |  |  |  | > 100 | > 100 |  |  |  |  |  |  |
| c1ccc(SC(CCCCOC2CCCCO2)Sc2ccccc2)cc1 (stereo not given) | > 100 µM | > 100 µM | > 100 µM | > 100 µM |  |  |  |  |  | > 100 |  |  |  |  |  |  |  |
| Cc1ccc(S(=O)(=O)c2c3[nH]c4ccccc4nc3n3c2nc2ccccc23)cc1 | > 100 µM | > 100 µM | > 100 µM | > 100 µM |  |  |  |  |  | > 100 |  |  |  |  |  |  |  |
| Cn1c(=O)c(C(=O)NC(=O)OCc2ccccc2)cn(CCSCCOC(=O)NCCCCCCNC(=O)OCCSCCn2cc(C(=O)NC(=O)OCc3ccccc3)c(=O)n(C)c2=O)c1=O | > 100 µM | > 100 µM | > 100 µM | > 100 µM |  |  |  |  |  | > 100 | > 100 |  |  |  |  |  |  |
| Cc1ccc(N2C(=O)/C(=C/c3ccc(N(CCC#N)CCC#N)cc3C)N=C2c2cc([N+](=O)[O-])ccc2Cl)cc1 | > 100 µM | > 100 µM | > 100 µM | > 100 µM |  |  |  |  |  | > 100 | > 100 |  |  |  |  |  |  |
| Cc1cccc2c1C/C(=C1\CCc3c(C)cccc31)C2=O |  | > 100 µM | > 100 µM | > 100 µM |  |  |  |  |  | > 100 | > 100 |  |  |  |  |  |  |
| CC(C)(c1ccc(OC#N)cc1)c1ccc(OC#N)cc1 | > 100 µM | > 56.9 µM |  | > 100 µM |  |  |  |  |  | > 100 | > 100 |  |  |  |  |  |  |
| CS/C(c1ccccc1)=[N+](/C)[O-] | > 100 µM |  |  | > 100 µM |  |  |  |  |  | > 100 | > 100 |  |  |  |  |  |  |
| CC1=Nn2c(nnc2-c2ccc(N)cc2)NC(C)(C)C1 | > 100 µM | > 100 µM | > 100 µM | > 100 µM |  |  |  |  |  | > 100 | > 100 |  |  |  |  |  |  |
| NC(CCSC(F)F)C(=O)O (stereo not given) | > 100 µM | > 100 µM | > 100 µM | > 100 µM |  |  |  |  |  | > 100 |  |  |  |  |  |  |  |
| COc1cc(/C=C2/C(=O)NC(Cc3cc(OC)c(OC)c(C)c3OC)C(=O)N2Cc2ccccc2)c(OC)c(C)c1OC (stereo not given) |  | > 100 µM | > 100 µM | > 100 µM |  |  |  |  |  | > 100 | > 100 |  |  |  |  |  |  |
| O=C(/C=C1/NC(=O)CS1)Nc1ccccc1 | > 100 µM | > 100 µM | > 100 µM | > 100 µM |  |  |  |  |  | > 100 | > 100 |  |  |  |  |  |  |
